Laboratory results: patent US11267811B2, “Small molecule inhibitors of galectin-3” (BRISTOL-MYERS SQUIBB COMPANY, priority 2017, dated 2022)
pIC50: −log10 of the molar value.

biological target: His-tagged recombinant human Gal-3 (hGal-3) (Homo sapiens (Human), UniProt P17931); assay: Gal-3 HTRF assay (His-tagged hGal-3 binding to B-ASF); settings: HTRF, hGal-3 15 nM, B-ASF 15 nM; read-out: hGal-3 IC50;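 note: compounds preincubated 30 min with hGal-3, then 1 h with B-ASF, detection via terbium anti-His antibody and streptavidin d2. Control with B-ASF counts as full signal, omitting B-ASF as background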
Sequence (P17931 whole entry): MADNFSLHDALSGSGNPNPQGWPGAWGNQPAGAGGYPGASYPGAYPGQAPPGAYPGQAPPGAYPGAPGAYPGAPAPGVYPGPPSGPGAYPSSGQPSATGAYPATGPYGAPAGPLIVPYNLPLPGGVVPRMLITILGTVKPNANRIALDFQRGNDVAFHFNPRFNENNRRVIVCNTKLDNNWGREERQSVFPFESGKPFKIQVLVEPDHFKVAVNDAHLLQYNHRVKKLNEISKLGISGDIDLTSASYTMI

Row | pIC50 | SMILES
1 | 7.30 | Cc1nc2ccc(-n3ncnc3[C@@H]3O[C@H](CO)[C@H](O)[C@H](n4cc(-c5cc(F)c(Cl)c(Cl)c5)nn4)[C@H]3O)cc2s1 [Example 221, (2R,3R,4R,5R,6S)-4-(4-(3,4-dichloro-5-fluorophenyl)-1H-1,2,3-triazol-1-yl)-2-(hydroxymethyl)-6-(1-(2-methylbenzo[d]thiazol-6-yl)-1H-1,2,4-triazol-5-yl)tetrahydro-2H-pyran-3,5-diol]
2 | 6.62 | Cc1nc2ccc(-n3ncnc3[C@@H]3O[C@H](CO)[C@H](O)[C@H](n4cc(-c5cc(F)c(Cl)cc5F)nn4)[C@H]3O)cc2s1 [Example 222]
3 | 6.70 | COc1ccc(-c2cn([C@H]3[C@@H](O)[C@@H](CO)O[C@@H](c4ncnn4-c4ccc5nc(C)sc5c4)[C@@H]3O)nn2)cc1F [Example 223]
4 | 6.48 | Cc1nc2ccc(-n3ncnc3[C@@H]3O[C@H](CO)[C@H](O)[C@H](n4cc(-c5ccc(F)cc5)nn4)[C@H]3O)cc2s1 [Example 224, (2R,3R,4R,5R,6S)-4-(4-(4-fluorophenyl)-1H-1,2,3-triazol-1-yl)-2-(hydroxymethyl)-6-(1-(2-methylbenzo[d]thiazol-6-yl)-1H-1,2,4-triazol-5-yl)tetrahydro-2H-pyran-3,5-diol]
5 | 6.89 | Cc1nc2ccc(-n3ncnc3[C@@H]3O[C@H](CO)[C@H](O)[C@H](n4cc(-c5cc(F)c(N6CCC(O)CC6)c(F)c5)nn4)[C@H]3O)cc2s1 [Example 241, (2R,3R,4R,5R,6S)-4-(4-(3,5-difluoro-4-(4-hydroxypiperidin-1-yl)phenyl)-1H-1,2,3-triazol-1-yl)-2-(hydroxymethyl)-6-(1-(2-methylbenzo[d]thiazol-6-yl)-1H-1,2,4-triazol-5-yl)tetrahydro-2H-pyran-3,5-diol]
6 | 7.22 | Cc1nc2ccc(-n3ncnc3[C@@H]3O[C@H](CO)[C@H](O)[C@H](n4cc(-c5cc(F)c(N6CC(O)C6)c(F)c5)nn4)[C@H]3O)cc2s1 [Example 242]
7 | 7.10 | Cc1nc2ccc(-n3ncnc3[C@@H]3O[C@H](CO)[C@H](O)[C@H](n4cc(-c5cc(F)c(N6CCOCC6)c(F)c5)nn4)[C@H]3O)cc2s1 [Example 243]
8 | 7.10 | Cc1nc([C@@H]2O[C@H](CO)[C@H](O)[C@H](n3cc(-c4ccc(Cl)c(F)c4)nn3)[C@H]2O)n(-c2cccc(Cl)c2)n1 [Example 244, (2S,3R,4R,5R,6R)-4-(4-(4-chloro-3-fluorophenyl)-1H-1,2,3-triazol-1-yl)-2-(1-(3-chlorophenyl)-3-methyl-1H-1,2,4-triazol-5-yl)-6-(hydroxymethyl)tetrahydro-2H-pyran-3,5-diol]
9 | 7.30 | CO[C@@H]1[C@@H](n2cc(-c3ccc(Cl)c(F)c3)nn2)[C@@H](O)[C@@H](CO)O[C@H]1c1nc(C)nn1-c1cc(Cl)ccc1Cl [Example 257, (2R,3R,4S,5R,6S)-4-(4-(4-chloro-3-fluorophenyl)-1H-1,2,3-triazol-1-yl)-6-(1-(2,5-dichlorophenyl)-3-methyl-1H-1,2,4-triazol-5-yl)-2-(hydroxymethyl)-5-methoxytetrahydro-2H-pyran-3-ol]
10 | 7.22 | CO[C@@H]1[C@@H](n2cc(-c3ccc(Cl)c(F)c3)nn2)[C@@H](O)[C@@H](CO)O[C@H]1c1nc(C)nn1-c1cc(Cl)ccc1C [Example 258]
11 | 7.30 | Cc1nc([C@@H]2O[C@H](CO)[C@H](O)[C@H](n3cc(-c4cc(F)c(Cl)c(F)c4)nn3)[C@H]2O)n(-c2cc(Cl)ccc2Cl)n1 [Example 260]
12 | 7.70 | Cc1nc([C@@H]2O[C@H](CO)[C@H](O)[C@H](n3cc(-c4cc(F)c(Cl)c(F)c4)nn3)[C@H]2O)n(-c2cc(Cl)ccc2C)n1 [Example 261]
13 | 7.22 | CCc1nc([C@@H]2O[C@H](CO)[C@H](O)[C@H](n3cc(-c4cc(F)c(F)c(F)c4)nn3)[C@H]2O)n(-c2ccc3nc(C)sc3c2)n1 [Example 267]
14 | 6.92 | Cc1nc2ccc(-n3nc(CC(N)=O)nc3[C@@H]3O[C@H](CO)[C@H](O)[C@H](n4cc(-c5cc(F)c(F)c(F)c5)nn4)[C@H]3O)cc2s1 [Example 268]
15 | 6.48 | Cc1nc2ccc(-n3nc(C(=O)O)nc3[C@H]3C[C@@H](n4cc(-c5cccc(F)c5)nn4)[C@@H](O)[C@@H](CO)O3)cc2s1 [Example 269, 5-((2R,4R,5R,6R)-4-(4-(3-fluorophenyl)-1H-1,2,3-triazol-1-yl)-5-hydroxy-6-(hydroxymethyl)tetrahydro-2H-pyran-2-yl)-1-(2-methylbenzo[d]thiazol-6-yl)-1H-1,2,4-triazole-3-carboxylic acid]

same assay, conditions: read-out: hGal3 IC50

Row | pIC50 | SMILES
16 | 7.30 | Cc1nc2ccc(-n3ncnc3[C@@H]3O[C@H](CO)[C@H](O)[C@H](n4cc(-c5ccc(Br)c(F)c5)nn4)[C@H]3O)cc2s1 [Example 216]
17 | 7.15 | Cc1nc2ccc(-n3ncnc3[C@@H]3O[C@H](CO)[C@H](O)[C@H](n4cc(-c5ccc(Cl)c(F)c5)nn4)[C@H]3O)cc2s1 [Example 217]
18 | 7.70 | Cc1nc2ccc(-n3ncnc3[C@@H]3O[C@H](CO)[C@H](O)[C@H](n4cc(-c5cc(N)c(F)c(F)c5)nn4)[C@H]3O)cc2s1 [Example 218]
19 | 7.15 | CC(=O)Nc1cc(-c2cn([C@H]3[C@@H](O)[C@@H](CO)O[C@@H](c4ncnn4-c4ccc5nc(C)sc5c4)[C@@H]3O)nn2)cc(F)c1F [Example 219]
20 | 7.15 | CCOC(=O)Nc1cc(-c2cn([C@H]3[C@@H](O)[C@@H](CO)O[C@@H](c4ncnn4-c4ccc5nc(C)sc5c4)[C@@H]3O)nn2)cc(F)c1F [Example 220]
21 | 6.68 | Cc1nc2ccc(-n3ncnc3[C@@H]3O[C@H](CO)[C@H](O)[C@H](n4cc(-c5ccc(Br)cc5)nn4)[C@H]3O)cc2s1 [Example 225]
22 | 7.15 | Cc1nc2ccc(-n3ncnc3[C@@H]3O[C@H](CO)[C@H](O)[C@H](n4cc(-c5cc(F)c(Br)c(F)c5)nn4)[C@H]3O)cc2s1 [Example 226]
23 | 6.60 | Cc1nc2cc(-c3cn([C@H]4[C@@H](O)[C@@H](CO)O[C@@H](c5ncnn5-c5ccc6nc(C)sc6c5)[C@@H]4O)nn3)cc(F)c2o1 [Example 227]
24 | 6.38 | Cc1nc2ccc(-n3ncnc3[C@@H]3O[C@H](CO)[C@H](O)[C@H](n4cc(-c5cc(F)cc(C(F)(F)F)c5)nn4)[C@H]3O)cc2s1 [Example 228]
25 | 6.01 | Cc1nc2ccc(-n3ncnc3[C@@H]3O[C@H](CO)[C@H](O)[C@H](n4cc(-c5ccc(OC(F)(F)F)c(F)c5)nn4)[C@H]3O)cc2s1 [Example 229]
26 | 6.35 | Cc1nc2ccc(-n3ncnc3[C@@H]3O[C@H](CO)[C@H](O)[C@H](n4cc(-c5ccc(C#N)c(F)c5)nn4)[C@H]3O)cc2s1 [Example 230]
27 | 6.41 | Cc1nc2ccc(-n3ncnc3[C@@H]3O[C@H](CO)[C@H](O)[C@H](n4cc(-c5ccc(CC#N)c(F)c5)nn4)[C@H]3O)cc2s1 [Example 231]
28 | 7.40 | COc1cc(-c2cn([C@H]3[C@@H](O)[C@@H](CO)O[C@@H](c4ncnn4-c4ccc5nc(C)sc5c4)[C@@H]3O)nn2)cc(F)c1F [Example 232]
29 | 6.62 | COc1cc(F)c(F)cc1-c1cn([C@H]2[C@@H](O)[C@@H](CO)O[C@@H](c3ncnn3-c3ccc4nc(C)sc4c3)[C@@H]2O)nn1 [Example 233]
30 | 6.41 | Cc1nc2ccc(-n3ncnc3[C@@H]3O[C@H](CO)[C@H](O)[C@H](n4cc(-c5cc(F)c(C#N)cc5C)nn4)[C@H]3O)cc2s1 [Example 235]
31 | 6.62 | Cc1nc2ccc(-n3ncnc3[C@@H]3O[C@H](CO)[C@H](O)[C@H](n4cc(-c5cc(C)c(C#N)c(F)c5)nn4)[C@H]3O)cc2s1 [Example 236]
32 | 6.68 | Cc1nc2ccc(-n3ncnc3[C@@H]3O[C@H](CO)[C@H](O)[C@H](n4cc(-c5ccc(Cl)cc5)nn4)[C@H]3O)cc2s1 [Example 237]
33 | 6.80 | Cc1nc2ccc(-n3ncnc3[C@@H]3O[C@H](CO)[C@H](O)[C@H](n4cc(-c5cc(F)cc(Cl)c5)nn4)[C@H]3O)cc2s1 [Example 240]
34 | 7.52 | Cc1nc([C@@H]2O[C@H](CO)[C@H](O)[C@H](n3cc(-c4ccc(Cl)c(F)c4)nn3)[C@H]2O)n(-c2cc(Cl)ccc2Cl)n1 [Example 246]
35 | 6.35 | Cc1nc([C@@H]2O[C@H](CO)[C@H](O)[C@H](n3cc(-c4ccc(Cl)c(F)c4)nn3)[C@H]2O)n(-c2ccccc2)n1 [Example 247]
36 | 7.05 | Cc1nc([C@@H]2O[C@H](CO)[C@H](O)[C@H](n3cc(-c4ccc(Cl)c(F)c4)nn3)[C@H]2O)n(-c2cc(Cl)ccc2F)n1 [Example 249]
37 | 7.10 | COc1ccc(Cl)cc1-n1nc(C)nc1[C@@H]1O[C@H](CO)[C@H](O)[C@H](n2cc(-c3ccc(Cl)c(F)c3)nn2)[C@H]1O [Example 251]
38 | 6.96 | Cc1nc([C@@H]2O[C@H](CO)[C@H](O)[C@H](n3cc(-c4ccc(Cl)c(F)c4)nn3)[C@H]2O)n(-c2ccc(Cl)c(Cl)c2)n1 [Example 252]
39 | 7.10 | Cc1nc([C@@H]2O[C@H](CO)[C@H](O)[C@H](n3cc(-c4ccc(Cl)c(F)c4)nn3)[C@H]2O)n(-c2ccc3ncccc3c2)n1 [Example 253]
40 | 6.96 | Cc1nc([C@@H]2O[C@H](CO)[C@H](O)[C@H](n3cc(-c4ccc(Cl)c(F)c4)nn3)[C@H]2O)n(-c2cc(F)ccc2C(F)(F)F)n1 [Example 254]
41 | 7.15 | Cc1nc([C@@H]2O[C@H](CO)[C@H](O)[C@H](n3cc(-c4ccc(Cl)c(F)c4)nn3)[C@H]2O)n(-c2cc(C(F)(F)F)ccc2Cl)n1 [Example 255]
42 | 7.10 | Cc1nc([C@@H]2O[C@H](CO)[C@H](O)[C@H](n3cc(-c4ccc(Cl)c(F)c4)nn3)[C@H]2O)n(-c2ccc3ncsc3c2)n1 [Example 256]
43 | 7.00 | Cc1nc([C@H]2C[C@@H](n3cc(-c4cc(F)c(Cl)c(F)c4)nn3)[C@@H](O)[C@@H](CO)O2)n(-c2cc(Cl)ccc2Cl)n1 [Example 262]
44 | 6.92 | Cc1nc([C@H]2C[C@@H](n3cc(-c4cc(F)c(Cl)c(F)c4)nn3)[C@@H](O)[C@@H](CO)O2)n(-c2cc(Cl)ccc2C)n1 [Example 263]
45 | 7.52 | Cc1nc([C@H]2C[C@@H](n3cc(-c4cc(F)c(Cl)c(F)c4)nn3)[C@@H](O)[C@@H](CO)O2)n(-c2ccc3ncsc3c2)n1 [Example 265]
